Series [1] is described as follows: stability testing in intestinal perfusate. The series is classed as in vitro ADME. To be noted: rat, 37° C.; for half-life: intestinal perfusate. The procedure: (§1) Stability testing of the various compounds was performed in buffer, intestinal perfusate, and an intestinal homogenate preparation to assess the potential oral availability of these compounds. Initial studies prepared the tissue for stability studies. The buffer used in stability testing is 10 mM MES (pH 6.5) containing 135 mM NaCl, and 5 mM KCl. To collect intestinal perfusate from rats, male Sprague Dawley rats, 8 to 10 weeks old, weighing 250 to 350 g were fasted 15 to 18 hours with water given ad libitum. Anesthesia was administered by intramuscular injection of pentobarbital/ketamine (40 mg/kg and 80 mg/kg, respectively). The rats were placed on a warming pad under a surgical lamp to maintain body temperature and jejunal intestinal segments were exposed through a midline, abdominal incision. Approximately 20 cm segment of the jejunum (2 to 4 cm distal to the ligament of Treitz) was cannulated and the intestinal segments were perfused with 10 mM MES (pH 6.5) containing 135 mM NaCl, and 5 mM KCl at a flow-rate of 0.5 ml/min at 37° C. using a constant infusion pump (Harvard Apparatus, South Natick, Mass.). The collected perfusate was stored at −80° C. until use for ex vivo stability studies. After collection, the perfused intestinal segments were flushed with ice-cold 0.15 M KCl solution and the animal was euthanized and the jejunal intestinal segment detached. The inner intestinal tissue layers are scraped out and homogenized in MES buffer (pH 6.5) in a ratio of 1 part of intestinal tissue to 5 parts buffer. Total protein content of the perfusate and the homogenate were determined using a Biorad protein assay kit. The intestinal homogenate samples were used immediately or rapidly frozen at −80° C. until stability analysis.
(§2) The actual stability testing protocol is as follows: A 0.1 ml aliquot of the synthetic peptide solution (1 mg/ml) was added to 0.9 ml of MES buffer, pH 6.5, intestinal perfusate, or intestinal homogenate at 37° C. Samples were mixed by vortexing and 100 microliter aliquots were removed over a 60 to 90 minute period for analysis of breakdown products. The 100 microliter sample aliquots were diluted 10 fold with water and subjected to solid phase extraction using a Waters Oasis HLB column. Briefly, the columns were preconditioned by passing 1 ml of MeOH and 1 ml of water over the column, and 1 ml of sample was added to the column. The column was washed with 5% methanol:95% water solution to remove proteins and salts, then eluted with 1 ml of 100% methanol. The methanol was removed by vacuum, and the sample was reconstituted in mobile phase for LC/MS/MS analysis.
(§3) LC/MS/MS analysis was performed on a HP1100 HPLC (Hewlett Packard) interfaced with a Quattro II MS/MS detector (Waters/Micromass). For the HPLC separation, a 10 μL aliquot of sample in a mobile phase consisting of an equal volume mixture of acetonitrile/water containing 0.5% formic acid was injected onto a 150 mm×2.2 mm, 5 μm C8 column (Higgins Analytical Inc) and developed at a flow rate of 0.2 ml/min for 5 minutes. The MS detector was used in single ion recording mode at a cone voltage of 50 Volts.

Series [2] can be described thus: rat intestinal in situ perfusion permeability. The series is classed as in vivo. To be noted: rat. As for the experimental part:
To determine the intestinal permeability of the various peptide analogs, male albino Sprague-Dawley rats, 9-10 weeks old and weighing 250-350 g were fasted for 18 hours with free access to water. The rats were anesthetized with an intramuscular injection of ketamine/xylazine/butorphanol (87 mg/kg, 6 mg/kg, and 0.2 mg/kg body weight, respectively). The abdomen was opened by a 4-5 cm midline incision and a 10 cm jejunal segment was cannulated on two ends and connected to a syringe pump that pumps the perfusing solution through the cannulated intestine at a constant rate and at a temperature of 37° C. The isolated segment was rinsed with 10 mM MES (pH 6.5) at a flow-rate of 0.5 ml/min in order to clean out any residual debris. Jejunal perfusion was subsequently performed with the same buffer containing 135 mM NaCl, 5 mM KCl and 0.01% PEG 4000 at a flow rate of 0.2 ml/min containing test compound, internal permeability reference standards (e.g., metoprolol) and ^14C-PEG 4000 as a non-absorbable marker for measuring water flux. After steady-state is reached within the perfused intestinal segment, typically 30 minutes after start of perfusion, samples were taken at 10 minute intervals for 1 hour. ^14C (PEG-4000) levels are assayed by scintillation counting and test compounds and internal permeability standard analysis by LC/MS/MS. Samples are frozen and stored at −80° C. until analysis.
The effective permeability (Peff) determined from the in situ perfusion is calculated from equation 1
[formula] where Q is the perfusion buffer flow rate, C′out is the outlet concentration of the compound that has been adjusted for water transport (equation 2) after passing through the intestinal segment, C′in is the inlet or starting concentration of the compound, R is the radius of the intestinal segment (set to 0.2 cm) and L is the length of the intestinal segment. To correct for water transport, a non-absorbed radioactive tracer, ^14C PEG-4000, is included in the perfusion buffer. The Cout/Cin ratio is corrected for water transport according to equation 2:
[formula] where Aout-A0 is equal to the radioactivity counts in the outlet sample minus background (dpm) and Ain-A0 is equal to the radioactivity counts in the inlet sample minus background (dpm).
In certain instances, in addition to perfusing the intestinal segment as described, plasma is drawn through a portal vein cannula to determine the amount of material entering the portal system during the perfusion. This additional experimental step can aid in determining the true intestinal permeability of unstable compounds. After steady state conditions are reached as described above, 0.5 ml aliquots of plasma are withdrawn from the portal vein at regular intervals throughout the experimental time frame. The plasma samples are deproteinated with acetonitrile and the sample is subjected to SPE and LC/MS analysis as described above. From the plasma concentration of compound, the mesenteric permeability can be determined by substitution into equation 3: Flux=A*Pe-mes*Ci 3) where Flux is equal to the portal blood flow (estimated at 1 ml/min in the rat)×the steady state mesenteric blood concentration of the peptide analogs, A is the absorptive area of the intestine (estimated at 12.56 cm^2 in the rat intestine), Pe-mes is the mesenteric Permeability (cm/sec), and Ci is the starting concentration of drug in the perfusate (ug/ml).

Series [3] in a line: stability testing in intestinal homogenate. To be noted: rat. The series is classed as in vitro ADME. The procedure: as §1, §2, §3
Setting [4] is: read-out: t1/2 (min) Intestinal Perfusate.

Like-named read-outs stand apart in the source and are kept apart here. Where a SMILES comes first, the peptide text is derived from it.

For `N=C(N)NCCC[C@H](N)C(=O)N1CCC[C@H]1C(=O)N1CCC[C@H]1C(=O)O` [RPP, Arg-Pro-Pro, reference compound] (H-Arg-Pro-Pro-OH; C-terminus assumed), the half-life at 0.1 mg/ml in series [1] (male, Sprague Dawley, intestinal (jejunal) perfusate, pH 6.5, rat, read-out: t1/2 (min) Intestinal Perfusate) amounted to 91.8 min.

For the molecule `N=C(N)NCCC[C@@H](N)C(=O)N1[C@H](C(=O)N2C[C@H](O)C[C@H]2C(=O)NCC(=O)N[C@H](C(N)=O)C2Cc3ccccc3C2)C[C@@H]2CCCC[C@@H]21` [rOicHypGIdg] (HELM PEPTIDE1{[dR].[O=C([C@@H]1C[C@@H]2CCCC[C@@H]2N1[*:1])[*:2]].[Hyp].G.[O=C([C@@H](N[*:1])C1Cc2ccccc2C1)[*:2]].[am]}$$$$V2.0), the half-life in series [1] (setting [4]) was determined as 205 min.

Consider `N=C(N)NCCC[C@@H](N)C(=O)N1[C@H](C(=O)N2CCC[C@H]2C(=O)NCC(=O)N[C@H](C(N)=O)C2Cc3ccccc3C2)C[C@@H]2CCCC[C@@H]21` [rOicPGIdg] (HELM PEPTIDE1{[dR].[O=C([C@@H]1C[C@@H]2CCCC[C@@H]2N1[*:1])[*:2]].P.G.[O=C([C@@H](N[*:1])C1Cc2ccccc2C1)[*:2]].[am]}$$$$V2.0), for which, in series [1] (setting [4]), the half-life was determined as 56.1 min.

In the case of `N=C(N)NCCC[C@@H](N)C(=O)N1[C@H](C(=O)N2CCC[C@H]2C(=O)O)C[C@@H]2CCCC[C@@H]21` [rOicP] (HELM PEPTIDE1{[dR].[O=C([C@@H]1C[C@@H]2CCCC[C@@H]2N1[*:1])[*:2]].P}$$$$V2.0), the “t1/2 (min) Intestinal Perfusate” value in series [1] was “stable”. Further, the Papp in series [2] (from portal vein plasma during perfusion, read-out: Permeability (mesenteric)) turned out to be 1.63 ×10⁻⁶ cm/s; in series [2] (rat jejunal in situ perfusion, read-out: Permeability (in situ)), 7.6 ×10⁻⁶ cm/s. Besides, the half-life in series [3] (intestinal homogenate, 37° C., read-out: t1/2 (min) Intestinal Homogenate) came to 935 min. The “stability in intestinal homogenate (FIG. 12)” value in series [3] is “most stable”.

(Values after patent US7879792B2, “Synthetic peptide inhibitors of thrombin and thrombin activation of protease activated receptors 1 and 4” (The Regents of the University of Michigan, priority 2005, dated 2011).)
